The record followed here is US20260008784A1 (VASTHERA CO., LTD., priority 2022, published 2026).

The test system of assay [1] is yeast thioredoxin (Trx)/yeast Trx reductase (TR). Kind of assay: Peroxidase activity assay (H2O2 reduction, NADPH oxidation). It is filed as biochemical. The following applies: 50 μM test compound, 3 μM yeast Trx, 1.5 μM yeast TR, 250 μM NADPH, 1.2 mM H2O2, 30° C.; NADPH oxidized per minute. In short, it runs like this: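 Buffer: 50 mM HEPES pH 7.0, 1 mM EDTA, 250 μM NADPH, 3 μM yeast Trx, 1.5 μM yeast TR, 50 μM test compound; reaction started with 1.2 mM H2O2. A340 decrease followed at 30° C for 12 min. Initial rate is NADPH oxidized per minute, taken from the linear slope.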

In assay [2] the test system is human aortic smooth muscle cell (HASMC). The assay can be described thus: PDGF-induced proliferation assay, HASMC (PrxII siRNA). It is filed as cell-based. The note with it: for Degree of HASMC proliferation: PDGF-BB 25 ng/mL, percent of untreated control; for pIC50: Homo sapiens, HASMC, 50% growth inhibition, PDGF-stimulated.
The subject of assay [3] is human pulmonary artery smooth muscle cell (PASMC). Kind of assay: PDGF-induced proliferation assay, PASMC (PrxII siRNA). The note with it: for Degree of PASMC proliferation: PDGF-BB 25 ng/mL, percent of untreated control; for pIC50: Homo sapiens, PASMC, 50% growth inhibition, PDGF-stimulated. It is filed as cell-based.
The subject of assay [4] is human pulmonary artery endothelial cell (PAEC). Kind of assay: VEGF-induced proliferation assay, PAEC (PrxII siRNA). It is filed as cell-based. The note with it: for Degree of PAEC proliferation: VEGF-A 25 ng/mL, percent of untreated control; for pEC50: Homo sapiens, Endothelial cell, effective concentration increasing cell proliferation by 50%, VEGF-stimulated. The method, then:
HAECs and PAECs were transfected with a PrxII-specific siRNA using RNAi MAX transfection reagent according to manufacturer's protocol. After 24 hours, transfected cells (3,000 cells/well) were seeded in a 96-well culture plate. At 12 h after seeding, cells were serum-starved for additional 18 h in EBM basal medium containing 0.5% FBS. Test compounds were serially diluted with the same basal medium containing 0.5% FBS, added to the cells ([…]), and incubated for 2 h. After treatment, cells were placed in fresh EBM medium containing 0.5% FBS and VEGF-A (25 ng/mL) for growth factor stimulation and further cultured for 24 h.
The degree of cell proliferation was measured using the Cell Titer-GLO kit ([…]). Data are the percent of luminescence intensity averaged from three replicate wells versus that of untreated control group.
In human aortic endothelial cell (HAEC) and human pulmonary artery endothelial cell (PAEC) in which PrxII was knocked out by transfecting the PrxII siRNA, the ability of test compounds to augment the VEGF-induced proliferation of vascular endothelial cells was evaluated. In Table 7, the degree of proliferation in the compound-treated groups is expressed as percent of the degree of proliferation in untreated control group. The effective concentrations of test compounds increasing cell proliferation by 50% (EC50) is also listed.

pEC50, pIC50: −log10 of the molar value.

The term pIC50 denotes the negative decadic logarithm of the IC50, by convention in mol/L. Lower therefore signals a large IC50. As usually defined, the pEC50 is −log10 of the EC50, conventionally taken in molar units. A high value points to a low EC50. With `CN1C(=O)C2CSSC1(C)C(=O)N2Cc1ccc2ccccc2n1` (centres unmarked) [Compound 5, 1,8-dimethyl-6-(quinolin-2-ylmethyl)-2,3-dithia-6,8-diazabicyclo[3.2.2]nonane-7,9-dione], the “Peroxidase activity for H2O2 reduction” value in assay [1] worked out at 4.80 nmol/min. The “Degree of HASMC proliferation” value in assay [2] (2.5 nM) worked out at 62.3%; in assay [2] (5 nM) it was 52.4%; in assay [2] (10 nM), 36.9%; in assay [2] (25 nM), 9.7%. Moreover, the pIC50 in assay [2] was 8.31; in assay [3], 8.25. Besides, the “Degree of PASMC proliferation” value in assay [3] (2.5 nM) is 71.3%; in assay [3] (5 nM), 48.3%; in assay [3] (10 nM), 37.5%; in assay [3] (25 nM), 26.8%; in assay [3] (50 nM), 1.9%; in assay [3] (100 nM), 2.5%. Besides, the “Degree of PAEC proliferation” value was 106.1% in assay [4] (2.5 nM); 129.7% in assay [4] (5 nM); 152.3% in assay [4] (10 nM); 165.6% in assay [4] (25 nM); 167.7% in assay [4] (50 nM); 147.4% in assay [4] (100 nM). In assay [4], this compound gave a negative-log EC50 (pEC50) of 8.30.

Turning to `O=C1C2CSSC3(COCCN13)C(=O)N2Cc1ccccc1` (centres unmarked) [Compound 8, 12-benzyltetrahydro-5H,10H-4,10a-(epiminomethano)[1,4]oxazino[3,4-c][1,2,4]dithia zepine-5,11-dione], in assay [1], the “Peroxidase activity for H2O2 reduction” value came to 4.91 nmol/min. Moreover, the “Degree of HASMC proliferation” value in assay [2] (2.5 nM) stood at 75.1%; in assay [2] (5 nM) it was 40.1%; in assay [2] (10 nM) it was 46.9%; in assay [2] (25 nM), 30.2%. Also, the pIC50 is 8.19 in assay [2] and 8.45 in assay [3]. For the same compound, the “Degree of PASMC proliferation” value is recorded as 57.7% in assay [3] (2.5 nM); 41.7% in assay [3] (5 nM); 24.8% in assay [3] (10 nM); 5.7% in assay [3] (25 nM); 0.0% in assay [3] (50 nM); 0.0% in assay [3] (100 nM). Also, the “Degree of PAEC proliferation” value in assay [4] (2.5 nM) is 108.5%; in assay [4] (5 nM), 124.9%; in assay [4] (10 nM), 143.4%; in assay [4] (25 nM), 164.8%; in assay [4] (50 nM) it was 158.1%; in assay [4] (100 nM), 144.0%. Also, in assay [4], the negative logarithm of the EC50 (pEC50) is 8.29.

With `CN1C(=O)C2(C)SSCC1C(=O)N2C` (centres unmarked) [Compound 1, 1,6,8-trimethyl-2,3-dithia-6,8-diazabicyclo[3.2.2]nonane-7,9-dione], in assay [1], the “Peroxidase activity for H2O2 reduction” value was found to be 4.92 nmol/min. The “Degree of HASMC proliferation” value in assay [2] (2.5 nM) amounted to 70.0%; in assay [2] (5 nM), 43.9%; in assay [2] (10 nM), 17.1%; in assay [2] (25 nM), 1.5%. Moreover, the pIC50 was 8.38 in assay [2] and 8.30 in assay [3]. Further, the “Degree of PASMC proliferation” value was determined as 70.8% in assay [3] (2.5 nM); 49.8% in assay [3] (5 nM); 29.4% in assay [3] (10 nM); 14.3% in assay [3] (25 nM); 0.0% in assay [3] (50 nM); 0.0% in assay [3] (100 nM). Also, the “Degree of PAEC proliferation” value in assay [4] (2.5 nM) is on record as 104.7%; in assay [4] (5 nM) it was 120.0%; in assay [4] (10 nM) it was 143.8%; in assay [4] (25 nM), 164.3%; in assay [4] (50 nM), 158.8%; in assay [4] (100 nM), 145.5%. The same compound had a negative logarithm of the EC50 (pEC50) in assay [4] of 8.02.

As for `CCN1C(=O)C2(C)SSCC1C(=O)N2CC` (centres unmarked) [Compound 20, 6,8-diethyl-1-methyl-2,3-dithia-6,8-diazabicyclo[3.2.2]nonane-7,9-dione], in assay [1], the “Peroxidase activity for H2O2 reduction” value came to 4.78 nmol/min. The “Degree of HASMC proliferation” value in assay [2] (2.5 nM) was determined as 85.8%; in assay [2] (5 nM) it was 58.7%; in assay [2] (10 nM), 34.9%; in assay [2] (25 nM), 12.3%. The results for the pIC50 in assay [2] and in assay [3] were 8.17 and 8.21, respectively. Moreover, the “Degree of PASMC proliferation” value was 82.2% in assay [3] (2.5 nM); 51.5% in assay [3] (5 nM); 31.6% in assay [3] (10 nM); 21.1% in assay [3] (25 nM); 7.3% in assay [3] (50 nM); 5.2% in assay [3] (100 nM). Further, the “Degree of PAEC proliferation” value was determined as 109.2% in assay [4] (2.5 nM); 124.3% in assay [4] (5 nM); 133.5% in assay [4] (10 nM); 166.5% in assay [4] (25 nM); 180.9% in assay [4] (50 nM); 180.4% in assay [4] (100 nM). The pEC50 in assay [4] was 7.99.
